According to ChEMBL document CHEMBL1201862, “PubChem BioAssay data set” (2004):
Active and inactive are the calls of the source.

Experiments:
[1] = target: 26S proteasome non-ATPase regulatory subunit 14 (Homo sapiens, UniProt O00487); assay: inhibition of proteasome subunit RPN11 – biochemical, fluorescence polarization, uHTS hits, confirmation (AID 602368); assay type: functional
Prothrombin = Prothrombin (Bos taurus, UniProt P00735); assay: thrombin inhibition, dose response, biochemical, fluorescence polarization, uHTS hits (AID 602369); assay type: functional
[2] = target: 72 kDa type IV collagenase (Homo sapiens, UniProt P08253); assay: Dose Response validation of uHTS RPN11 inhibitor hits using a MMP-2 Fluorescence assay.; assay type: functional
X-box-binding protein 1 = X-box-binding protein 1 (Homo sapiens, UniProt P17861); assay type: functional, Cricetulus griseus;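 further: confirmatory dose-response counter-screen serving a CHOP assay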
Keap1/Nrf2 = Keap1/Nrf2 (Homo sapiens, UniProt Q14145); assay: Keap1-Nrf2 protein-protein interaction inhibitors, dose response, biochemical, fluorescence polarization, cherry-picked samples (AID 588683)
Salmon testes DNA = assay: DNA intercalators displacing acridine orange, dose response, artefact control for KSHV LANA DNA-binding inhibitor project, biochemical, fluorescence polarization, cherry-picked samples, set 2 (AID 504727); set-up: species or system Salmonidae
ORF 73 = target: T1, ORF 73 (Human herpesvirus 8, UniProt O40947); assay: inhibitors of C-LANA binding to LBS DNA, dose response, biochemical, fluorescence polarization, cherry-picked samples (AID 504725); set-up: species or system Human gammaherpesvirus 8;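 further: fluorescence polarization of a labeled DNA duplex reporting LANA DNA binding; potency is for inhibitors that block LANA binding to the DNA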
T1 sequence (O40947 whole entry): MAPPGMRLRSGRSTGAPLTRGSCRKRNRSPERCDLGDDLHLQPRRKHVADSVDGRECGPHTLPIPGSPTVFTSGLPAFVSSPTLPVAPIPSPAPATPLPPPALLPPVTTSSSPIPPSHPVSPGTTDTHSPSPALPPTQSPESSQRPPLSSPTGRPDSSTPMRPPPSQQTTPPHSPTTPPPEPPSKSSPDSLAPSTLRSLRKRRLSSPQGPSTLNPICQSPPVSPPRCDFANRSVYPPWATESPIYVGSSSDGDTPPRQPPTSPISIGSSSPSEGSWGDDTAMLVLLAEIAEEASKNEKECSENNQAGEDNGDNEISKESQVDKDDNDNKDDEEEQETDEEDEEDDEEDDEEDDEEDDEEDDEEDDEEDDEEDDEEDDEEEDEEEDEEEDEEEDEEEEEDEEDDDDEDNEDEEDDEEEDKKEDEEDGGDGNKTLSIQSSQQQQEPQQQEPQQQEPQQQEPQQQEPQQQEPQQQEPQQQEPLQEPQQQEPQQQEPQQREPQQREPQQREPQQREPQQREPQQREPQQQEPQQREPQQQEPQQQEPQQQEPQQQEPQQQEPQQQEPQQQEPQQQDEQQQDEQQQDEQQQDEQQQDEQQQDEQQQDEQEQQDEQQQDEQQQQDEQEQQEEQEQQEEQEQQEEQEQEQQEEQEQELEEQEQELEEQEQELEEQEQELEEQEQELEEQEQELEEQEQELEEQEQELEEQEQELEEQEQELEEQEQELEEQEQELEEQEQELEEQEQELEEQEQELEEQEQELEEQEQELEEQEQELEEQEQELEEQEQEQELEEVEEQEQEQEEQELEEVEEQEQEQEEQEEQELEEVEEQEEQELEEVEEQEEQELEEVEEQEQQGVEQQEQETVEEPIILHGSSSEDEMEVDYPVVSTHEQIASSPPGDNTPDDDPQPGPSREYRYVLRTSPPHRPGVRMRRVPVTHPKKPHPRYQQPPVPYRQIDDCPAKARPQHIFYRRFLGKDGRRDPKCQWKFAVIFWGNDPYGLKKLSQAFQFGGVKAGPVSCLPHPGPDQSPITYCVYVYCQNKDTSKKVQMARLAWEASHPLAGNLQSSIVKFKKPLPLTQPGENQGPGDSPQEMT

[3] = target: T2, Corticotropin-releasing factor receptor 2/Corticotropin-releasing factor-binding protein (Homo sapiens, UniProt P24387+Q13324); assay: activators of CRF receptor 2 with binding protein – uHTS hits, confirmation (AID 602473); assay type: functional; conditions: read-out: EC50_Mean
T2 sequence (Q13324 whole entry): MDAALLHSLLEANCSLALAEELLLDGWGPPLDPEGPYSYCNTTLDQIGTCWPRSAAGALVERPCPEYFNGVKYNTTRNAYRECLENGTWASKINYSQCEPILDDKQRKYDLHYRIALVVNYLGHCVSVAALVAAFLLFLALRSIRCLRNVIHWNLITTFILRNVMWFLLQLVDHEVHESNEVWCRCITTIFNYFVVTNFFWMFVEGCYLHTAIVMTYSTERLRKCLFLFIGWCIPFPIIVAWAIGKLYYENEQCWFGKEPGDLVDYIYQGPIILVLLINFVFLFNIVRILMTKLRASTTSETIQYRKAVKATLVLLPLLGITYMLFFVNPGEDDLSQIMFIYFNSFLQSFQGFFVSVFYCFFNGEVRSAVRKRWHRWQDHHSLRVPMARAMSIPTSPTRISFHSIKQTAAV
T2 sequence (P24387 whole entry): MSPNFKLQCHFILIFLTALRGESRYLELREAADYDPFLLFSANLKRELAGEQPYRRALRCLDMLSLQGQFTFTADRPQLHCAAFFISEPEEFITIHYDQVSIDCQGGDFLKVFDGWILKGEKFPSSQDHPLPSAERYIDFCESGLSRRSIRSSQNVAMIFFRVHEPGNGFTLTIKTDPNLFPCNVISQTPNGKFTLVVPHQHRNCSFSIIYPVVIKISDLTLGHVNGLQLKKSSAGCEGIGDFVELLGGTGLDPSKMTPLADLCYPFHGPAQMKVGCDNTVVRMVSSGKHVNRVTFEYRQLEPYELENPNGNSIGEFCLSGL

Cytochrome P450 2C19 = Cytochrome P450 2C19 (Homo sapiens, UniProt P33261); assay: Cytochrome panel assay with activity outcomes. Panel member name: p450-cyp2c19 Compounds with AC50 equal or less than 10 uM are considered active; assay type: functional
MDA-MB-435 = assay: cells; assay type: functional, cell-based; conditions: Homo sapiens
Phosphomannomutase 2 = target: T3, Phosphomannomutase 2 (Homo sapiens, UniProt O15305); assay: Counter screen SAR assay for PMM2 inhibitors via a fluorescence intensity assay. [Related pubchem assays (depositor defined):AID1545, AID1574]
T3 sequence (O15305 whole entry): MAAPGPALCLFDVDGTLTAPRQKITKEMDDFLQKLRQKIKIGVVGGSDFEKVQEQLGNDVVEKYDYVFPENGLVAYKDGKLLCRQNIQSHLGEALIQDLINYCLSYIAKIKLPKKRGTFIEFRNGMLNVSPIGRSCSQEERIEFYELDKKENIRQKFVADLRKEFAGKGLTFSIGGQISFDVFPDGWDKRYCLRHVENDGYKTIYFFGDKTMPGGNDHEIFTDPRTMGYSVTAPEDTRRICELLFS

[4] = growth suppression of beta-catenin-knockout colon cells, dose response, cell-based, HCT116, human colon tumor (AID 1045); assay type: functional;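 further: HCT116 colon tumor cells with beta catenin knocked out; cells exposed to compound for 60 hours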
[5] = growth suppression of PTEN-null colon cells, dose response, cell-based, HCT116 PTEN knockout (AID 1047); assay type: functional;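 further: HCT116 colon tumor cells with PTEN knocked out; cells exposed to compound for 60 hours before readout; potency for loss of cell viability measured by luminescence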
[6] = cytotoxicity toward NIH3T3 fibroblasts, dose response, counter-screen, cell-based, ATP luminescence, mouse fibroblasts (AID 2010); assay type: functional;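 further: cells exposed to compound for about 90 hours before reading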
cells = assay type: functional, cell-based; conditions: PPC-1
Genome polyprotein = Genome polyprotein (dengue virus type 2, UniProt P29990); assay: Dengue-2 NS5 methyltransferase inhibitors, primary screen, biochemical, confirmation dose response (AID 588689); assay type: functional
[7] = target: T4, Replicative DNA helicase DnaB (Mycobacterium tuberculosis, UniProt P9WMR3); assay: DnaB intein splicing inhibitors, dose response, biochemical, cell-free fluorescence (AID 449749); assay type: functional
T4 sequence (P9WMR3 whole entry): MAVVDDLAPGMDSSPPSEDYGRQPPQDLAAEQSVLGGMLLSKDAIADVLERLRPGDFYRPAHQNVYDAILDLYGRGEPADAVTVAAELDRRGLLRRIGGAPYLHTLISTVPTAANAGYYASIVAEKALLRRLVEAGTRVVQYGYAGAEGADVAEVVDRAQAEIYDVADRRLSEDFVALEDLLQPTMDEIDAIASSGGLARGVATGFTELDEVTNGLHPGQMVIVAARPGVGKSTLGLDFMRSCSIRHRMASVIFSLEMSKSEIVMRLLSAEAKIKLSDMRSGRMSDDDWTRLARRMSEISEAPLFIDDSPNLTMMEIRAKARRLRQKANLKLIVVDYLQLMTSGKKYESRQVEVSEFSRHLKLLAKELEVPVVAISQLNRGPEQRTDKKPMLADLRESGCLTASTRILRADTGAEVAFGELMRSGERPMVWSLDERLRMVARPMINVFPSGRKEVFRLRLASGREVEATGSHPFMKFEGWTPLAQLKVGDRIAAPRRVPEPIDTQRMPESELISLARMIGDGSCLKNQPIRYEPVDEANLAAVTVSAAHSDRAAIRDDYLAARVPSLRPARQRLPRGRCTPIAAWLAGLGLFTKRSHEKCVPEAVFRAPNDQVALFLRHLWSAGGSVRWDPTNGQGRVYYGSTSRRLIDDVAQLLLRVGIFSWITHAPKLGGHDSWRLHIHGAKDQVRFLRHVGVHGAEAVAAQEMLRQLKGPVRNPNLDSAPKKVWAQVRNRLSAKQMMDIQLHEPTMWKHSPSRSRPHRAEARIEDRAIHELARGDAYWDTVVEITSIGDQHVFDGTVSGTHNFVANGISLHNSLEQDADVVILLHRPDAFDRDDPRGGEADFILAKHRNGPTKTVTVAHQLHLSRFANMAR

Protein RecA = target: T5, Protein RecA (Mycobacterium tuberculosis, UniProt P9WHJ3); assay: Fluorescence Cell-Free Homogeneous Dose Retest to Identify Inhibitors of RecA-Intein Splicing Activity. [Related pubchem assays (depositor defined):AID2097, AID2223, AID489010, AID492950]; assay type: functional
T5 sequence (P9WHJ3 whole entry): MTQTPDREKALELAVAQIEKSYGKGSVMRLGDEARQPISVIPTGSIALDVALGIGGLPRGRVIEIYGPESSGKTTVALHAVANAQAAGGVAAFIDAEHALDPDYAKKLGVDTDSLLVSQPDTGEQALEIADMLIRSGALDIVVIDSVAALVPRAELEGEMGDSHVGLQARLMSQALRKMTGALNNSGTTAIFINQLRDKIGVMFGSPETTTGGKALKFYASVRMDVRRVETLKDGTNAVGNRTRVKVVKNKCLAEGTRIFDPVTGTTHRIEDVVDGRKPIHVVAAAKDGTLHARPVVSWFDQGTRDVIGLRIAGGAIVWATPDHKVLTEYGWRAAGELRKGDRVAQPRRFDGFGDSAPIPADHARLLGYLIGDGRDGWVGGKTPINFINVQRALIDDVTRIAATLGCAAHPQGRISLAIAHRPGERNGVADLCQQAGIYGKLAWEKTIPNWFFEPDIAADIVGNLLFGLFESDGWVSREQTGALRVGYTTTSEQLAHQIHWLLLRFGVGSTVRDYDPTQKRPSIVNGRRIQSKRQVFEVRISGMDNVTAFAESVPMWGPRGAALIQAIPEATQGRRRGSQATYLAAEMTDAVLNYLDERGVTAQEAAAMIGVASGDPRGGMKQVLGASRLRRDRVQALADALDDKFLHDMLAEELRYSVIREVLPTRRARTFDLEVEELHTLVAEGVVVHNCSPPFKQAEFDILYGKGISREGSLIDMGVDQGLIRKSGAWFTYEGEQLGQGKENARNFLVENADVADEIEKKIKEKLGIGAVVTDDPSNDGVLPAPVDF

[8] = inhibition of K1F phage lysis, E. coli UTI89, bacterial capsule biogenesis inhibitors, alamar blue (AID 488966); assay type: functional
[9] = target: T6, Voltage-gated N-type calcium channel alpha-1B subunit/Amyloid beta A4 precursor protein-binding family A member 1 (Homo sapiens, UniProt Q00975+Q02410); assay: disruptors of Mint-PDZ/N-type channel peptide interaction – biochemical, HTRF, SAR follow-up (AID 2489); assay type: functional
[10] = target: T6, Voltage-gated N-type calcium channel alpha-1B subunit/Amyloid beta A4 precursor protein-binding family A member 1; assay: disruptors of Mint-PDZ/N-type channel peptide interaction – biochemical, HTRF, set 2, SAR follow-up (AID 434980); assay type: functional
[11] = target: T7, Polyadenylate-binding protein 1 (Homo sapiens, UniProt P11940); assay: PABP1 MLLE–PAM2 binding inhibitor potency, dose response, biochemical, fluorescence polarization, FITC-PAM2 peptide (AID 602259); assay type: functional; conditions: read-out: IC50_Mean
Protein Rev = Protein Rev (Human immunodeficiency virus type 1 group M subtype B (isolate HXB2)(HIV-1), UniProt P04618); assay: inhibitors of Rev binding to RRE RNA, dose response, biochemical, fluorescence polarization, HIV-1 (AID 434976); set-up: species or system Human immunodeficiency virus 1
[12] = target: T7, Polyadenylate-binding protein 1; assay: PABP1 MLLE–PAM2 interaction inhibitors, dose response, miRNA deadenylation inhibitor project, biochemical, fluorescence polarization, Cy5-PAM2 peptide, secondary (AID 602260); assay type: functional; conditions: read-out: IC50_Mean
[13] = target: Female germline-specific tumor suppressor gld-1 (Caenorhabditis elegans, UniProt Q17339); assay: inhibitors of GLD-1 binding to TGE RNA, dose response, biochemical, fluorescence polarization, C. elegans (AID 2802);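 further: fluorescence polarization of labeled TGE RNA bound by purified gld-1 protein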

Sequence of Cytochrome P450 2C19 (P33261 whole entry): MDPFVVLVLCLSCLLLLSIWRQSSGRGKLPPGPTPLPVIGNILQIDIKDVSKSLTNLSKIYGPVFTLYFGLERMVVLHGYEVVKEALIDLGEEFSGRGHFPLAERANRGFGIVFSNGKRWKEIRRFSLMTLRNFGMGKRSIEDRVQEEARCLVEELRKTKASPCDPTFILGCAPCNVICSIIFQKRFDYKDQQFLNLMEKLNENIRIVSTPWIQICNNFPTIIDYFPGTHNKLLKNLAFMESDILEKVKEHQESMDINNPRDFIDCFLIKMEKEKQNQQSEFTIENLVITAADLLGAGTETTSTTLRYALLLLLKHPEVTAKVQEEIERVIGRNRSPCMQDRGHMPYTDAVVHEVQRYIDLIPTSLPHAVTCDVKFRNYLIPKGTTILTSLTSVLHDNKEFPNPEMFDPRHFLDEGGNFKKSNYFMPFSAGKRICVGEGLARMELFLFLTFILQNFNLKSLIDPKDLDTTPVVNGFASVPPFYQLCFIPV
T7 sequence (P11940 whole entry): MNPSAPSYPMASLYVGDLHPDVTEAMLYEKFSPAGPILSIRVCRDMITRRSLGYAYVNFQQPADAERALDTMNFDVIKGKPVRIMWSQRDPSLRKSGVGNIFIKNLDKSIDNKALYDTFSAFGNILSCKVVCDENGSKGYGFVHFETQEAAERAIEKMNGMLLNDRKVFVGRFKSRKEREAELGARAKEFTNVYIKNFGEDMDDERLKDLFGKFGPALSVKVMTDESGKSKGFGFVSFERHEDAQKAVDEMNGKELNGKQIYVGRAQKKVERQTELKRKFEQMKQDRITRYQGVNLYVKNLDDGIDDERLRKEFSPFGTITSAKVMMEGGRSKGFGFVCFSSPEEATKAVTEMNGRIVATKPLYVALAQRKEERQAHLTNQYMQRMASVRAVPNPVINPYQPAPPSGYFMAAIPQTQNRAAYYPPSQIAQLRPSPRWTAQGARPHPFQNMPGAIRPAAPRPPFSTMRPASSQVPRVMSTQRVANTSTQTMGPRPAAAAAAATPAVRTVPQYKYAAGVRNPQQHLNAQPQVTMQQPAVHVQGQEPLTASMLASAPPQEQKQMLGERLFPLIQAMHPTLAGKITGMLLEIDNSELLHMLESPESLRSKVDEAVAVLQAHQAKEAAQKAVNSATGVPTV
T6 sequence (Q00975 whole entry): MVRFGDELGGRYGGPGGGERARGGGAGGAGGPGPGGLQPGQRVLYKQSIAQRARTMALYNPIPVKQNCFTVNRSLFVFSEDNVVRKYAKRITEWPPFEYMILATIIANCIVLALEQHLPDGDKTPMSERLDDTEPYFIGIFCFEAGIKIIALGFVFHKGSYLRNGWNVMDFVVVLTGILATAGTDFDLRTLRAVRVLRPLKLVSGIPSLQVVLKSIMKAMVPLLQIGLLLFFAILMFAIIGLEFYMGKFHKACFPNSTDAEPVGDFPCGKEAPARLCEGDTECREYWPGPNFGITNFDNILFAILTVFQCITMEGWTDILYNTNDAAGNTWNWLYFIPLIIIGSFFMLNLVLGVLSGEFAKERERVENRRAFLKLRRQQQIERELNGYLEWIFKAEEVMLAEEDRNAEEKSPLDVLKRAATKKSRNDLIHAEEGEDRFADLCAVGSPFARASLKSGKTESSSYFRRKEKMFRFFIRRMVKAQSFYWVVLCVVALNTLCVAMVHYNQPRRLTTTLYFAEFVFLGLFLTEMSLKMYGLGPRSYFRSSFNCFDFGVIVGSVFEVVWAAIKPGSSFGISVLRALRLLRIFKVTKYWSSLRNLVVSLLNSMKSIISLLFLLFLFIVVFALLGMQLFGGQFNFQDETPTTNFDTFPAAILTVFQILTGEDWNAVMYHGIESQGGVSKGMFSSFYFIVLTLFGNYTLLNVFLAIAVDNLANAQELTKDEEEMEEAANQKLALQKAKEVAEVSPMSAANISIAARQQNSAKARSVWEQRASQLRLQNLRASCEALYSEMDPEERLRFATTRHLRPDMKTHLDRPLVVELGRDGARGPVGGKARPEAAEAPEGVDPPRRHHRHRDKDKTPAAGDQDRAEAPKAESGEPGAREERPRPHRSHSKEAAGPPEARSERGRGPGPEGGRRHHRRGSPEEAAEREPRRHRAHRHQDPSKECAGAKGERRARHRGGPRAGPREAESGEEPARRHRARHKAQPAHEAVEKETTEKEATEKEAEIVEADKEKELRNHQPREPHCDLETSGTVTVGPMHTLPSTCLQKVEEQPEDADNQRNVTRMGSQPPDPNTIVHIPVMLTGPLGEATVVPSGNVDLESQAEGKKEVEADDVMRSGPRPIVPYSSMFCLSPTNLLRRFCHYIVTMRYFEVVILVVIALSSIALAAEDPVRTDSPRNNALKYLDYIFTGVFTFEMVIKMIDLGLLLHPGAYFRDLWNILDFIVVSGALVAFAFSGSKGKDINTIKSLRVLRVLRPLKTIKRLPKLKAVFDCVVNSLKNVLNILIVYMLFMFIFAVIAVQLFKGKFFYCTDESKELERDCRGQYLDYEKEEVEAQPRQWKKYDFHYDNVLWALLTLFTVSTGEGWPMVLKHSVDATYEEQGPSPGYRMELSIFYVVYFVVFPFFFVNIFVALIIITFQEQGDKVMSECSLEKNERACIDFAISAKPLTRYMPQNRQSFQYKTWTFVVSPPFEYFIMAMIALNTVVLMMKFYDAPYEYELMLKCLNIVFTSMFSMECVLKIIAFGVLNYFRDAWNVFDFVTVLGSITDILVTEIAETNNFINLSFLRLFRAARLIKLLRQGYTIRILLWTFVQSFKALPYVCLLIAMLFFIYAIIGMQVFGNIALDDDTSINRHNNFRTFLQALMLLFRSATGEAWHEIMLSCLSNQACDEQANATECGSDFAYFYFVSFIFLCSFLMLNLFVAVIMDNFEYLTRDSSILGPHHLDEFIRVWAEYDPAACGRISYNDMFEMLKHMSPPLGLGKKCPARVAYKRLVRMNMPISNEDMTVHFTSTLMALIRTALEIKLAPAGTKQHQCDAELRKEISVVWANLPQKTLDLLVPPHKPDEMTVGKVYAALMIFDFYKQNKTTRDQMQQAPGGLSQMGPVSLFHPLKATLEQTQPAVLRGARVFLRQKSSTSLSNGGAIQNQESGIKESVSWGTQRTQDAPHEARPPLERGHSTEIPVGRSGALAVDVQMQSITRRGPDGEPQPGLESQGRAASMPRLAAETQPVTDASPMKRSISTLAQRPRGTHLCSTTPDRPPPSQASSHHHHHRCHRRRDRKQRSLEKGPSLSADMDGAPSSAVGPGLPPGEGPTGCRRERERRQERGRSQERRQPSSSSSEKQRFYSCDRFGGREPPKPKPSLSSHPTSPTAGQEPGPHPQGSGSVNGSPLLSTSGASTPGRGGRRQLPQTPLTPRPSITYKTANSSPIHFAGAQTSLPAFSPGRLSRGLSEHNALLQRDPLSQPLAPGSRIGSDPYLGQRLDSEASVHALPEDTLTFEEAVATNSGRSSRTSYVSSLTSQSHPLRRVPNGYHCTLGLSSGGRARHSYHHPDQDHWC
T6 sequence (Q02410 whole entry): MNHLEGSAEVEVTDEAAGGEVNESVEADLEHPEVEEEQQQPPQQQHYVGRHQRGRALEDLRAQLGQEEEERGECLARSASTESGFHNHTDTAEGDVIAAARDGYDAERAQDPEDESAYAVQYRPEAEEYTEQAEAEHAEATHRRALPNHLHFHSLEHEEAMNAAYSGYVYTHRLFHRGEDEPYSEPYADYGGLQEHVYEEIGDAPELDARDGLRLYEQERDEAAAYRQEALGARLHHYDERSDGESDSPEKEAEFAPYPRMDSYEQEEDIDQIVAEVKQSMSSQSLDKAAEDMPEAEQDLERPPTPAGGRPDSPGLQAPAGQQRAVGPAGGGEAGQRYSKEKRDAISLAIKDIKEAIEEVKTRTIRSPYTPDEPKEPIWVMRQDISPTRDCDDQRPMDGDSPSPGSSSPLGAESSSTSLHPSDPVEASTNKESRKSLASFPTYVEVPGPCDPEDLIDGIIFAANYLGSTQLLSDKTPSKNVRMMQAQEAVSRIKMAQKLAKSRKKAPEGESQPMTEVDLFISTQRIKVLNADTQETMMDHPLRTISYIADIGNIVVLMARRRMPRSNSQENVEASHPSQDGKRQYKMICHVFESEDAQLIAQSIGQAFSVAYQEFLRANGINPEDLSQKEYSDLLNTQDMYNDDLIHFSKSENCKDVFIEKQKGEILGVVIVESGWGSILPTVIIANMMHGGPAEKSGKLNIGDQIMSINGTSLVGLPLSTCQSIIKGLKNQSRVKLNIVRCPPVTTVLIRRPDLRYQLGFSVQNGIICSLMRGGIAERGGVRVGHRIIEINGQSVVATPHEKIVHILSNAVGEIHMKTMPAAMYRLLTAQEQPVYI
Sequence of Protein Rev (P04618 whole entry): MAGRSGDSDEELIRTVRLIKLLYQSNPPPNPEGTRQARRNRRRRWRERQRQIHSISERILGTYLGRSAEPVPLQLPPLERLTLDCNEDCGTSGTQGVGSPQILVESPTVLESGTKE
Sequence of X-box-binding protein 1 (P17861 whole entry): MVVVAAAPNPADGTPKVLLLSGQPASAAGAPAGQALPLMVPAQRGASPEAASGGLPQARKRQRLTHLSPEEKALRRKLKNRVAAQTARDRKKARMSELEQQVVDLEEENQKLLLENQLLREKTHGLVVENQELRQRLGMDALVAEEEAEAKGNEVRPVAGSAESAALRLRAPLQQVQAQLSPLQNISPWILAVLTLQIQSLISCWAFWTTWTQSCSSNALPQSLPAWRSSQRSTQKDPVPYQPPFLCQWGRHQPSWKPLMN
Sequence of 26S proteasome non-ATPase regulatory subunit 14 (O00487 whole entry): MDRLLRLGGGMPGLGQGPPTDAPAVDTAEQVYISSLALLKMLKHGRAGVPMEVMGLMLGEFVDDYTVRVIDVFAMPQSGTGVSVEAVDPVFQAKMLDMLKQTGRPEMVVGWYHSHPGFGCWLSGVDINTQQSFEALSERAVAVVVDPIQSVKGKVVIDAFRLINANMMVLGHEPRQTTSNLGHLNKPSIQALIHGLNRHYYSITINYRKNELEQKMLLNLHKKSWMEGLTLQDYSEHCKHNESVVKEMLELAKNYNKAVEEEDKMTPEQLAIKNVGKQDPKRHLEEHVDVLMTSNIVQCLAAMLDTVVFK

Cc1cccc(OCc2nnc(SCc3nc(O)c4ccc(C(F)(F)F)cc4n3)o2)c1
IC50 [1]: 21.5 µM (active)
IC50 (Prothrombin): 29.7 µM (active)
IC50 [2]: > 100 µM (inactive)
Absolute IC50 (XBP1) (X-box-binding protein 1): 10 µM

Cc1ccccc1N1C(=O)c2cccc3c(N(C)CCO)ccc(c23)C1=O
AC50 (Keap1/Nrf2): > 52 µM (inactive)
AC50 (Salmon testes DNA): 68.4 µM (active)
AC50 (ORF 73): 172 µM (active)
EC50 [3]: 5.5 µM (active)

CSc1nc(-c2ccc(C)cc2)nc(C(Cl)Cl)n1
AC50 (Cytochrome P450 2C19; read-out: AC50): 398 nM (inconclusive)
IC50 (MDA-MB-435): > 10 µM (inactive)
IC50 (Phosphomannomutase 2): > 100 µM (inactive)
EC50 [4]: 714 nM (active)
EC50 [5]: 824 nM (active)
EC50 [6]: > 60 µM (inconclusive)
IC50 (cells): > 10 µM (inactive)

N=C1/C(=C\c2ccc(OC(=O)c3ccc(F)cc3)cc2)C(=O)N=C2SC(N3CCOCC3)=NN12
IC50 (Genome polyprotein): 19.2 µM (active)
AC50 [7]: 22.4 µM (active)
EC50 (Protein RecA): 17.1 µM (active)
IC50 [8]: > 75 µM (active)

O=C(c1cc(-c2ccco2)nc2ccccc12)N1CCN(c2ccccc2)CC1
IC50 [9]: > 56.8 µM (inactive)
IC50 [10]: > 56.8 µM (inactive)

O=c1nc2[nH]c3ccccc3nc-2c(=O)[nH]1 [ALLOXAZINE]
AC50 (Cytochrome P450 2C19): inconclusive
IC50 [11]: 35.8 µM (inactive)
IC50 (Protein Rev): 12.4 µM (not active)
IC50 [12]: > 66 µM (inactive)
IC50 [13]: 1.47 µM (active)
